Reference: PubChem BioAssay (NCI)
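Assay format: 96-well plates, 48-hour exposure. TGI marks complete inhibition of growth.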

Legend:
Test in all cases: NCI anticancer screen, dose series, 48 h
786-0 renal = tested on: 786-0 renal
A498 renal = tested on: A498 renal
A549 NSCLC = tested on: A549 NSCLC
ACHN renal = tested on: ACHN renal
CAKI-1 renal = tested on: CAKI-1 renal
CCRF-CEM leukemia = tested on: CCRF-CEM leukemia
COLO 205 colon = tested on: COLO 205 colon
DLD-1 colon = tested on: DLD-1 colon
DMS 114 small cell lung = tested on: DMS 114 small cell lung
DMS 273 small cell lung = tested on: DMS 273 small cell lung
EKVX NSCLC = tested on: EKVX NSCLC
HCC-2998 colon = tested on: HCC-2998 colon
HCT-116 colon = tested on: HCT-116 colon
HCT-15 colon = tested on: HCT-15 colon
HL-60(TB) leukemia = tested on: HL-60(TB) leukemia
HOP-18 NSCLC = tested on: HOP-18 NSCLC
HOP-62 NSCLC = tested on: HOP-62 NSCLC
HOP-92 NSCLC = tested on: HOP-92 NSCLC
HT29 colon = tested on: HT29 colon
IGROV1 ovarian = tested on: IGROV1 ovarian
K-562 leukemia = tested on: K-562 leukemia
KM12 colon = tested on: KM12 colon
KM20L2 colon = tested on: KM20L2 colon
LOX IMVI melanoma = tested on: LOX IMVI melanoma
LXFL 529 NSCLC = tested on: LXFL 529 NSCLC
M14 melanoma = tested on: M14 melanoma
M19-MEL melanoma = tested on: M19-MEL melanoma
MALME-3M melanoma = tested on: MALME-3M melanoma
MOLT-4 leukemia = tested on: MOLT-4 leukemia
NCI-H23 lung = tested on: NCI-H23 lung
NCI-H460 lung = tested on: NCI-H460 lung
NCI-H522 lung = tested on: NCI-H522 lung
OVCAR-3 ovarian = tested on: OVCAR-3 ovarian
OVCAR-4 ovarian = tested on: OVCAR-4 ovarian
OVCAR-5 ovarian = tested on: OVCAR-5 ovarian
OVCAR-8 ovarian = tested on: OVCAR-8 ovarian
RPMI-8226 leukemia = tested on: RPMI-8226 leukemia
RXF-631 renal = tested on: RXF-631 renal
SF-268 CNS = tested on: SF-268 CNS
SF-295 CNS = tested on: SF-295 CNS
SF-539 CNS = tested on: SF-539 CNS
SK-MEL-2 melanoma = tested on: SK-MEL-2 melanoma
SK-MEL-28 melanoma = tested on: SK-MEL-28 melanoma
SK-MEL-5 melanoma = tested on: SK-MEL-5 melanoma
SK-OV-3 ovarian = tested on: SK-OV-3 ovarian
SN12C renal = tested on: SN12C renal
SNB-75 CNS = tested on: SNB-75 CNS
SW-620 colon = tested on: SW-620 colon
TK-10 renal = tested on: TK-10 renal
U251 CNS = tested on: U251 CNS
UACC-62 melanoma = tested on: UACC-62 melanoma
XF 498 CNS = tested on: XF 498 CNS
NCI-H226 lung = tested on: NCI-H226 lung
RXF 393 renal = tested on: RXF 393 renal
SNB-19 CNS = tested on: SNB-19 CNS
SNB-78 CNS = tested on: SNB-78 CNS
UACC-257 melanoma = tested on: UACC-257 melanoma
UO-31 renal = tested on: UO-31 renal
SR leukemia = tested on: SR leukemia

Measured: TGI

O=C(O)CCN(CCCN(CCC(=O)O)CCC(=O)O)CCC(=O)O
not listed: NCI-H226 lung | RXF 393 renal | SNB-19 CNS | SNB-78 CNS | UACC-257 melanoma | UO-31 renal | SR leukemia
> 100 µM: all other assays above

CC(C)c1ccc(/C=C/c2cc(C(=O)NNC(=O)NC3CCCCC3)nc(=S)[nH]2)cc1
not listed: CCRF-CEM leukemia | HL-60(TB) leukemia | K-562 leukemia | MOLT-4 leukemia | SK-MEL-2 melanoma | SR leukemia
> 100 µM: all other assays above

COc1ccc2c(c1)[n+]([O-])c(/C(C)=N/NC(=O)c1ccccc1O)c(C)[n+]2[O-]
not listed: A498 renal | COLO 205 colon | DMS 273 small cell lung | SNB-75 CNS | SR leukemia
> 100 µM: all other assays above

COc1ccc(N=Cc2ccc(N(CCC#N)S(=O)(=O)c3ccccc3)cc2C)cc1
93.7 µM: MALME-3M melanoma
96.3 µM: COLO 205 colon
71.5 µM: M14 melanoma
87.6 µM: TK-10 renal
67.8 µM: SK-MEL-2 melanoma
not listed: 786-0 renal | A498 renal | DLD-1 colon | DMS 273 small cell lung | KM12 colon | LOX IMVI melanoma
> 100 µM: all other assays above
